How the values were obtained:
IgG = IgG produced in in vitro culture of spleen cells from DNP-As immunized mice (ELISA); type: cell-based, BALB/c mice; conditions: Mus musculus, 96 h, spleen cell culture, 37° C., 4 days; for inhibition at 2.5 µg/mL: 2.5 μg/ml; for inhibition at 40 µg/mL: 40 μg/ml; for inhibition at 5 µg/mL: 5 μg/ml; for inhibition at 10 µg/mL: 10 μg/ml; for inhibition at 1 µg/mL: 1 μg/ml; for inhibition at 20 µg/mL: 20 μg/ml
Protocol: (§1) Determination of Igs Produced in In Vitro Culture
(§2) BALB/c mice were immunized intraperitoneally with 5 μg of DNP-As adsorbed on 4 mg aluminum hydroxide gel. Four weeks after the immunization, the spleens were excised from the mice and 5×10^7 spleen cells were transferred intravenously into the recipient mice which had been exposed to 600 rad of X-ray irradiation. Immediately after cell transfer, the recipients were then immunized intraperitoneally with 5 μg of DNP-As adsorbed on 4 mg aluminum hydroxide gel to induce adoptive secondary immune response. Further 4 weeks after the immunization of recipients, the spleens were excised from then and the spleen cell suspensions containing 5×10^6 cells/ml were cultured with or without a compound to be tested in 96-well micro-titer plates at 37° C. for 4 days. IgE and IgG secreted into the culture supernatant was each determined correspondingly by ELISA and the inhibitory effect was calculated according to the following equation. [formula]

IgE = IgE produced in in vitro culture of spleen cells from DNP-As immunized mice (ELISA); type: cell-based, BALB/c mice; conditions: Mus musculus, 96 h, spleen cell culture, 37° C., 4 days; for inhibition at 2.5 µg/mL: 2.5 μg/ml; for inhibition at 40 µg/mL: 40 μg/ml; for inhibition at 5 µg/mL: 5 μg/ml; for inhibition at 10 µg/mL: 10 μg/ml; for inhibition at 1 µg/mL: 1 μg/ml; for inhibition at 20 µg/mL: 20 μg/ml
Protocol: as §1, §2

`N#Cc1c(N2CCN(C=O)CC2)c(C(=O)OCCCc2ccccc2)c2ccccn2c1=O` [Compound S-41, 3-Cyano-2-(4-formylpiperazin-1-yl)-1-(3-phenylpropoxycarbonyl)-4H-quinolizin-4-one] was tested, and the inhibition at 2.5 µg/mL (IgG) was 9% and the inhibition at 2.5 µg/mL (IgE) was 75%.

For `CCOC(=O)c1c(N2CCN(C)CC2)c(C#N)c(=O)n2ccccc12` [Compound S-42, 3-Cyano-1-ethoxycarbonyl-2-(4-methylpiperazin-1-yl)-4H-quinolizin-4-one], the inhibition at 40 µg/mL (IgG) was 19% and the inhibition at 40 µg/mL (IgE) was 63%.

`CCOC(=O)c1c(-c2ccccc2)c(C#N)c(=O)n2ccccc12` [Compound S-1, 3-Cyano-1-ethoxycarbonyl-2-phenyl-4H-quinolizin-4-one] was tested, and the inhibition at 5 µg/mL (IgG) was 1% and the inhibition at 5 µg/mL (IgE) was 47%.

`CCOC(=O)c1c(-c2ccc(OC)cc2)c(C#N)c(=O)n2ccccc12` [Compound S-6, 3-Cyano-1-ethoxycarbonyl-2-(4-methoxyphenyl)-4-quinolizin-4-one] showed an inhibition at 10 µg/mL (IgG) of 37% and an inhibition at 10 µg/mL (IgE) of 65%.

Work on `CCOC(=O)c1c(-c2cc(OC)cc(OC)c2)c(C#N)c(=O)n2ccccc12` [Compound S-29, 3-Cyano-2-(3,5-dimethoxyphenyl)-1-ethoxycarbonyl-4H-quinolizin-4-one] yielded an inhibition at 40 µg/mL (IgG) of 17% and an inhibition at 40 µg/mL (IgE) of 67%.

In the case of `N#Cc1c(N2CCC(Cc3ccccc3)CC2)c(C(=O)OCCCc2ccccc2)c2ccccn2c1=O` [Compound S-45, 2-(4-Benzylpiperidino)-3-cyano-1-(3-phenylpropoxycarbonyl)-4H-quinolizin-4-one], the inhibition at 1 µg/mL (IgG) is reported as 16% and the inhibition at 1 µg/mL (IgE) is reported as 55%.

`CCOC(=O)c1c(-c2ccc(O)c(OC)c2)c(C#N)c(=O)n2ccccc12` [Compound S-32, 3-Cyano-1-ethoxycarbonyl-2-(4-hydroxy-3-methoxyphenyl)-4H-quinolizin-4-one] was tested, and the inhibition at 20 µg/mL (IgG) was -9% and the inhibition at 20 µg/mL (IgE) was 53%.

Molecule `CCOC(=O)c1c(-c2ccc([N+](=O)[O-])cc2)c(C#N)c(=O)n2ccccc12` [Compound S-20, 3-Cyano-1-ethoxycarbonyl-2-(4-nitrophenyl)-4H-quinolizin-4-one] has an inhibition at 10 µg/mL (IgG) of 9% and an inhibition at 10 µg/mL (IgE) of 49%.

Molecule `CCOC(=O)c1c(-c2ccc3c(c2)OCO3)c(C#N)c(=O)n2ccccc12` [Compound S-8, 3-Cyano-1-ethoxycarbonyl-2-(3,4-methylenedioxyphenyl)-4H-quinolizin-4-one] has an inhibition at 40 µg/mL (IgG) of 5% and an inhibition at 40 µg/mL (IgE) of 51%.

`CCOC(=O)c1c(N2CCN(C=O)CC2)c(C#N)c(=O)n2ccccc12` [Compound S-40, 3-Cyano-1-ethoxycarbonyl-2-(4-formylpiperazin-1-yl)-4H-quinolizin-4-one] showed an inhibition at 40 µg/mL (IgG) of 9% and an inhibition at 40 µg/mL (IgE) of 34%.

Molecule `CCOC(=O)c1c(-c2cc(OC)c(OC)c(OC)c2)c(C#N)c(=O)n2ccccc12` [Compound S-19, 3-Cyano-1-ethoxycarbonyl-2-(3,4,5-trimethoxyphenyl)-4H-quinolizin-4-one] has an inhibition at 20 µg/mL (IgG) of 8% and an inhibition at 20 µg/mL (IgE) of 48%.

For `CCOC(=O)c1c(N2CCN(CC(=O)N3CCOCC3)CC2)c(C#N)c(=O)n2ccccc12` [Compound S-55, 3-Cyano-1-ethoxycarbonyl-2-(4-morpholinocarbonylmethylpiperazin-1-yl)-4H-quinolizin-4-one], the inhibition at 40 µg/mL (IgG) was -4% and the inhibition at 40 µg/mL (IgE) was 36%.

`CCOC(=O)c1c(-c2ccc(SC)cc2)c(C#N)c(=O)n2ccccc12` [Compound S-25, 3-Cyano-1-ethoxycarbonyl-2-(4-methylthiophenyl)-4H-quinolizin-4-one] gave an inhibition at 20 µg/mL (IgG) of -4% and an inhibition at 20 µg/mL (IgE) of 61%.

With `CCOC(=O)c1c(-c2ccc(O)c(O)c2)c(C#N)c(=O)n2ccccc12` [Compound S-31, 3-Cyano-2-(3,4-dihydroxyphenyl)-1-ethoxycarbonyl-4H-quinolizin-4-one] the inhibition at 20 µg/mL (IgG) was -7% and the inhibition at 20 µg/mL (IgE) was 54%.

For `CCOC(=O)c1c(-c2ccc(OC)c(O)c2)c(C#N)c(=O)n2ccccc12` [Compound S-33, 3-Cyano-1-ethoxycarbonyl-2-(3-hydroxy-4-methoxyphenyl)-4H-quinolizin-4-one], the inhibition at 40 µg/mL (IgG) was 5% and the inhibition at 40 µg/mL (IgE) was 58%.

Molecule `CCOC(=O)c1c(-c2ccc(C)c(F)c2)c(C#N)c(=O)n2ccccc12` [Compound S-13, 3-Cyano-1-ethoxycarbonyl-2-(3-fluoro-4-methylphenyl)-4H-quinolizin-4-one] has an inhibition at 40 µg/mL (IgG) of 26% and an inhibition at 40 µg/mL (IgE) of 64%.

`CN1CCN(c2c(C#N)c(=O)n3ccccc3c2C(=O)OCCCc2ccccc2)CC1` [Compound S-43, 3-Cyano-2-(4-methylpiperazin-1-yl)-1-(3-phenylpropoxycarbonyl)-4H-quinolizin-4-one] showed an inhibition at 2.5 µg/mL (IgG) of 1% and an inhibition at 2.5 µg/mL (IgE) of 65%.

In the case of `CCOC(=O)c1c(-c2ccc(O)cc2)c(C#N)c(=O)n2ccccc12` [Compound S-30, 3-Cyano-1-ethoxycarbonyl-2-(4-hydroxyphenyl)-4H-quinolizin-4-one], the inhibition at 40 µg/mL (IgG) is reported as -20% and the inhibition at 40 µg/mL (IgE) is reported as 43%.

In the case of `N#Cc1c(N2CCCC2)c(C(=O)OCCCc2ccccc2)c2ccccn2c1=O` [Compound S-38, 3-Cyano-1-(3-phenylpropoxycarbonyl)-2-(1-pyrrolidinyl)-4H-quinolizin-4-one], the inhibition at 1 µg/mL (IgG) is reported as 1% and the inhibition at 1 µg/mL (IgE) is reported as 68%.

`N#Cc1c(N2CCCCC2)c(C(=O)OCCCc2ccccc2)c2ccccn2c1=O` [Compound S-36, 3-Cyano-1-(3-phenylpropoxycarbonyl)-2-piperidino-4H-quinolizin-4-one] showed an inhibition at 5 µg/mL (IgG) of -4% and an inhibition at 5 µg/mL (IgE) of 39%.

For `COC(=O)c1c(-c2ccccc2)c(C#N)c(=O)n2ccccc12` [Compound S-11, 3-Cyano-1-methoxycarbonyl-2-phenyl-4H-quinolizin-4-one], the inhibition at 40 µg/mL (IgG) was 19% and the inhibition at 40 µg/mL (IgE) was 46%.

`CCOC(=O)c1c(-c2cccc(OC)c2OC)c(C#N)c(=O)n2ccccc12` [Compound S-28, 3-Cyano-2-(2,3-dimethoxyphenyl)-1-ethoxycarbonyl-4H-quinolizin-4-one] was tested, and the inhibition at 2.5 µg/mL (IgG) was 14% and the inhibition at 2.5 µg/mL (IgE) was 64%.

In the case of `CCOC(=O)c1c(N2CCN(CCO)CC2)c(C#N)c(=O)n2ccccc12` [Compound S-39, 3-Cyano-1-ethoxycarbonyl-2-[4-(2-hydroxyethyl)-piperazin-1-yl]-4H-quinolizin-4-one], the inhibition at 40 µg/mL (IgG) is reported as 17% and the inhibition at 40 µg/mL (IgE) is reported as 63%.

`N#Cc1c(N2CCN(CCO)CC2)c(C(=O)OCCCc2ccccc2)c2ccccn2c1=O` [Compound S-54, 3-Cyano-2-[4-(2-hydroxyethyl)piperazin-1-yl]-1-(3-phenylpropoxycarbonyl)-4H-quinolizin-4-one] showed an inhibition at 5 µg/mL (IgG) of 4% and an inhibition at 5 µg/mL (IgE) of 59%.

`CCOC(=O)c1c(-c2ccc(Br)cc2)c(C#N)c(=O)n2ccccc12` [Compound S-3, 2-(4-Bromophenyl)-3-cyano-ethoxycarbonyl-4H-quinolizin-4-one] showed an inhibition at 49 µg/mL (IgG; 49 μg/ml) of 15% and an inhibition at 49 µg/mL (IgE; 49 μg/ml) of 34%.

With `CCOC(=O)c1c(-c2ccc(Cl)cc2Cl)c(C#N)c(=O)n2ccccc12` [Compound S-9, 3-Cyano-2-(2,4-dichlorophenyl)-1-ethoxycarbonyl-4H-quinolizin-4-one] the inhibition at 5 µg/mL (IgG) was 32% and the inhibition at 5 µg/mL (IgE) was 64%.

Molecule `N#Cc1c(N2CCN(CC(=O)N3CCOCC3)CC2)c(C(=O)OCCCc2ccccc2)c2ccccn2c1=O` [Compound S-56, 3-Cyano-2-(4-morpholinocarbonylmethylpiperazin-1-yl)-1-(3-phenylpropoxycarbonyl)-4H-quinolizin-4-one] has an inhibition at 2.5 µg/mL (IgG) of 1% and an inhibition at 2.5 µg/mL (IgE) of 37%.

`CCOC(=O)c1c(N2CCCCC2)c(C#N)c(=O)n2ccccc12` [Compound S-35, 3-Cyano-1-ethoxycarbonyl-2-piperidino-4H-quinolizin-4-one] was tested, and the inhibition at 5 µg/mL (IgG) was 17% and the inhibition at 5 µg/mL (IgE) was 30%.

In the case of `CCOC(=O)c1c(-c2ccc(F)cc2)c(C#N)c(=O)n2ccccc12` [Compound S-12, 3-Cyano-1-ethoxycarbonyl-2-(4-fluorophenyl)-4H-quinolizin-4-one], the inhibition at 20 µg/mL (IgG) is reported as 8% and the inhibition at 20 µg/mL (IgE) is reported as 50%.

In the case of `CCCOC(=O)c1c(-c2ccccc2)c(C#N)c(=O)n2ccccc12` [Compound S-10, 3-Cyano-2-phenyl-1-propoxycarbonyl-4H-quinolizin-4-one], the inhibition at 10 µg/mL (IgG) is reported as 22% and the inhibition at 10 µg/mL (IgE) is reported as 57%.

In the case of `N#Cc1c(N2CCOCC2)c(C(=O)OCCCc2ccccc2)c2ccccn2c1=O` [Compound S-49, 3-Cyano-2-morpholino-1-(3-phenylpropoxycarbonyl)-4H-quinolizin-4-one], the inhibition at 2.5 µg/mL (IgG) is reported as 21% and the inhibition at 2.5 µg/mL (IgE) is reported as 61%.

Reference: patent US4904657A, “4H-quinolizin-4-one compounds exhibiting therapeutic activities” (Kissei Pharmaceutical Co., Ltd., priority 1987, dated 1990)
